Test results published in ChEMBL document CHEMBL6134910, “Discovery of a New Class of Orexin 2 Receptor Agonists as a Potential Treatment for Narcolepsy” (J Med Chem, 2025).

What follows are molecules tested against T1, Orexin receptor type 2 (Homo sapiens, UniProt O43614) (assay: Agonist activity at human OX2 receptor expressed in HEK293 cells assessed as IP-1 accumulation incubated for […] by HTRF IP-one Gq detection assay).
T1 sequence (O43614 whole entry): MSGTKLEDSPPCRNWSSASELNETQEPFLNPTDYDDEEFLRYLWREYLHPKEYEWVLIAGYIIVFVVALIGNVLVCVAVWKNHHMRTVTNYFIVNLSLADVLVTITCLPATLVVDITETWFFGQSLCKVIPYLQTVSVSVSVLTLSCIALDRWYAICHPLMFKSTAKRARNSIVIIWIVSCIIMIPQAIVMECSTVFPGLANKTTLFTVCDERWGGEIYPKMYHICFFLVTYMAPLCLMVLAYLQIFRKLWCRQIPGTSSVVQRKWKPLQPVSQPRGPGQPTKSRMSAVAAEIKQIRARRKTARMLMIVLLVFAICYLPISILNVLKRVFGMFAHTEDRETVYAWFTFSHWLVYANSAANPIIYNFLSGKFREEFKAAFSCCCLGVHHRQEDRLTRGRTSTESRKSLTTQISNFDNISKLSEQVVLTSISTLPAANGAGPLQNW
Format: functional, cell-based

EC50 [µM] | Compound
> 20 | Cn1ncc(CC(=O)N(C2CCCC2)C(C(=O)NC23CC(C)(C2)C3)C2CCCC2)c1-c1ccccc1 (centres undefined)

Each molecule was assayed against Cytochrome P450 3A4 (Homo sapiens, UniProt P08684) (assay: Inhibition of CYP3A4 in human liver microsome using testosterone as substrate incubated for 7 mins).
Format: ADME, microsomes

Chain of Cytochrome P450 3A4 (P08684 whole entry): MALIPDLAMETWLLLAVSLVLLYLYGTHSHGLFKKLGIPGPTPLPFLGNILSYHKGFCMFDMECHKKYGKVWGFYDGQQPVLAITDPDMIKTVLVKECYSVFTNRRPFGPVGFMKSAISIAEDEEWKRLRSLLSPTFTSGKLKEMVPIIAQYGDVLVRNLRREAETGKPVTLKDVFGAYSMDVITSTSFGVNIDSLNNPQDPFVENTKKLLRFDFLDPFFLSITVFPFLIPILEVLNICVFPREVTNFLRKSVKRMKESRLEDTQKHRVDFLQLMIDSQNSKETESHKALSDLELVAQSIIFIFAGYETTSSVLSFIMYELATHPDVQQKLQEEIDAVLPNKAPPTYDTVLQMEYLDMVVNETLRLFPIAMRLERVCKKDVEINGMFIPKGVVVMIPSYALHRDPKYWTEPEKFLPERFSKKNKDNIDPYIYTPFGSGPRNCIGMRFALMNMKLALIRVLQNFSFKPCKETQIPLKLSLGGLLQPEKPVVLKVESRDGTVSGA

IC50 [µM] | Compound
1.5 | COc1cccc(-c2c(CC(=O)N(C3CCCC3)C(C(=O)NC34CC(C)(C3)C4)c3ccccc3)cnn2C)c1 (centres undefined)
1.4 | Cc1nsc(CC(=O)N(C2CCCC2)[C@@H](C(=O)NC23CC(C)(C2)C3)c2ccccc2)c1-c1ccccc1
10 | O=C(NC1CCCCC1)[C@@H](c1ccccc1)N(C[C@H]1CCCO1)C(=O)Cn1cnc2ccccc21
0.9 | COc1cccc(-c2c(CC(=O)N(C3CCCC3)C(C(=O)NC34CC(C)(C3)C4)c3ccccc3)cnn2C)c1F (centres undefined)
4.2 | Cn1ncc(CC(=O)N(C2CCCC2)C(C(=O)NC23CC(C)(C2)C3)c2ccccc2)c1-c1coc(C2CC2)n1 (centres undefined)
7.6 | Cn1ncc(CC(=O)N(C2CCCC2)[C@@H](C(=O)NC23CC(C)(C2)C3)c2ccccc2)c1-c1cccnc1
4 | Cn1ncc(CC(=O)N(C2CCCC2)[C@@H](C(=O)NC23CC(C)(C2)C3)c2ccccc2)c1-n1nccn1
5 | Cn1ncc(CC(=O)N(C2CCCC2)[C@@H](C(=O)NC23CC(C)(C2)C3)c2ccccc2)c1-c1ccccc1
2 | CC12CC(NC(=O)[C@@H](c3ccccc3)N(C(=O)Cc3cnn(C(F)F)c3-c3ccccc3)C3CCCC3)(C1)C2
7 | Cn1ncc(CC(=O)N(C2CCCC2)C(C(=O)NC23CC(C)(C2)C3)c2ccccc2)c1-c1c(F)cccc1F (centres undefined)
6.8 | Cn1ncc(CC(=O)N(C2CCCC2)C(C(=O)NC23CC(C)(C2)C3)c2ccccc2)c1-c1ncccn1 (centres undefined)
18 | CC12CC(NC(=O)[C@@H](c3ccccc3)N(C(=O)Cn3cnc(Cl)c3-c3ccccc3)C3CCCC3)(C1)C2
12 | Cn1nnc(-c2c(CC(=O)N(C3CCCC3)C(C(=O)NC34CC(C)(C3)C4)c3ccccc3)cnn2C)n1 (centres undefined)
7.3 | Cc1ncn(CC(=O)N(C[C@H]2CCCO2)[C@@H](C(=O)NC2CCCCC2)c2ccccc2)c1-c1ccccc1
2.5 | Cn1ccc(-c2c(CC(=O)N(C3CCCC3)C(C(=O)NC34CC(C)(C3)C4)c3ccccc3)cnn2C)n1 (centres undefined)
1 | CC(C)N(C(=O)Cc1cnn(C)c1-c1ccccc1)[C@@H](c1cn(C23CC(C)(C2)C3)nn1)c1cc(F)ccc1F
1.6 | CC12CC(NC(=O)[C@@H](c3ccccc3)N(C(=O)Cc3cnnn3-c3ccccc3)C3CCCC3)(C1)C2
0.3 | CC(C)N(C(=O)Cc1cnn(C)c1-c1ccccc1)[C@@H](C(=O)NC12CC(C)(C1)C2)c1cc(F)ccc1F
1.6 | Cn1ncc(CC(=O)N(C2CCCC2)C(C(=O)NC23CC(C)(C2)C3)c2ccccc2)c1-c1ccc(F)cc1F (centres undefined)
0.25 | O=C(NC1CCCCC1)[C@@H](c1ccccc1)N(C[C@H]1CCCO1)C(=O)Cn1cncc1-c1ccccc1
7.3 | Cc1ncn(CC(=O)N(C2CCCC2)[C@@H](C(=O)NC23CC(C)(C2)C3)c2ccccc2)c1-c1ccccc1
1.9 | CC12CC(NC(=O)[C@@H](c3ccccc3)N(C(=O)Cc3cnoc3-c3ccccc3)C3CCCC3)(C1)C2

These molecules were tested against T2, Orexin/Hypocretin receptor type 1 (Homo sapiens, UniProt O43613) (assay: Agonist activity at human OX1 receptor expressed in HEK293 cells assessed as IP-1 accumulation incubated for […] by HTRF IP-one Gq detection assay).
T2 sequence (O43613 whole entry): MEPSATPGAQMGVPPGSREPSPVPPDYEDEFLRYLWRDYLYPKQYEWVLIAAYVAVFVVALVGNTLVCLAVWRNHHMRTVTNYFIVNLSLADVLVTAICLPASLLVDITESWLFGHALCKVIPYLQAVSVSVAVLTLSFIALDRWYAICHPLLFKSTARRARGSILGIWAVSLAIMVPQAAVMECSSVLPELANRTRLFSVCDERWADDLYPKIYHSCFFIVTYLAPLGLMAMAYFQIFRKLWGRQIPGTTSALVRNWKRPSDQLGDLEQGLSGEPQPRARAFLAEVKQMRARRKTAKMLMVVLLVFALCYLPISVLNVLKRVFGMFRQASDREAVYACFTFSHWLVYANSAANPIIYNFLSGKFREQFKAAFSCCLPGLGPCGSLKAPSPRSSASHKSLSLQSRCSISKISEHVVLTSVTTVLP
Format: functional, cell-based

EC50 [µM] | Compound
> 20 | Cn1nnc(-c2oncc2CC(=O)N(C2CC3(CC3)C2)[C@@H](C(=O)NC23CC(C)(C2)C3)c2cc(F)ccc2F)n1
> 20 | Cn1nnc(-c2c(CC(=O)N(C3CC4(CC4)C3)[C@@H](C(=O)NC34CC(C)(C3)C4)c3ccccc3Cl)cnn2C)n1

These molecules were tested against Cytochrome P450 2D6 (Homo sapiens, UniProt P10635) (assay: Inhibition of CYP2D6 in human liver microsome using dextrometorphan as substrate incubated for 30 mins by LC-MS/MS analysis).
Format: ADME, microsomes

Chain of Cytochrome P450 2D6 (P10635 whole entry): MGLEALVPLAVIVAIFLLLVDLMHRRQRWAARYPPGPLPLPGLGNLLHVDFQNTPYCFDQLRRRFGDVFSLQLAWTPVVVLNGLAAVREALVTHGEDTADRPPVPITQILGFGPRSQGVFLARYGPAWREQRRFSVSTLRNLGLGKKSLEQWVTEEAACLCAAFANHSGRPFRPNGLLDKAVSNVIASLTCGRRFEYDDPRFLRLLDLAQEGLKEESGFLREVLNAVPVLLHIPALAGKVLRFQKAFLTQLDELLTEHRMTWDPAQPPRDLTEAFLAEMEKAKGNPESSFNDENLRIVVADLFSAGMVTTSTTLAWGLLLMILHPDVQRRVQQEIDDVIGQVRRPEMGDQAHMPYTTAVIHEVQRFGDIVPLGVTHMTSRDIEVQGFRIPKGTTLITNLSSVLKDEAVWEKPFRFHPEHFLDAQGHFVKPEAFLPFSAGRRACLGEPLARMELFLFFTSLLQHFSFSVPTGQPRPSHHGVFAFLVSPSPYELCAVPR

IC50 [µM] | Compound
20 | Cn1nnc(-c2oncc2CC(=O)N(C2CC3(CC3)C2)[C@@H](C(=O)NC23CC(C)(C2)C3)c2cc(F)ccc2F)n1
5.3 | Cn1nnc(-c2c(CC(=O)N(C3CC4(CC4)C3)[C@@H](C(=O)NC34CC(C)(C3)C4)c3ccccc3Cl)cnn2C)n1

What follows are molecules tested against Cytochrome P450 2C9 (Homo sapiens, UniProt P11712) (assay: Inhibition of CYP2C9 in human liver microsome using diclofenac as substrate incubated for 6 mins by LC-MS/MS analysis).
Format: ADME, microsomes

Chain of Cytochrome P450 2C9 (P11712 whole entry): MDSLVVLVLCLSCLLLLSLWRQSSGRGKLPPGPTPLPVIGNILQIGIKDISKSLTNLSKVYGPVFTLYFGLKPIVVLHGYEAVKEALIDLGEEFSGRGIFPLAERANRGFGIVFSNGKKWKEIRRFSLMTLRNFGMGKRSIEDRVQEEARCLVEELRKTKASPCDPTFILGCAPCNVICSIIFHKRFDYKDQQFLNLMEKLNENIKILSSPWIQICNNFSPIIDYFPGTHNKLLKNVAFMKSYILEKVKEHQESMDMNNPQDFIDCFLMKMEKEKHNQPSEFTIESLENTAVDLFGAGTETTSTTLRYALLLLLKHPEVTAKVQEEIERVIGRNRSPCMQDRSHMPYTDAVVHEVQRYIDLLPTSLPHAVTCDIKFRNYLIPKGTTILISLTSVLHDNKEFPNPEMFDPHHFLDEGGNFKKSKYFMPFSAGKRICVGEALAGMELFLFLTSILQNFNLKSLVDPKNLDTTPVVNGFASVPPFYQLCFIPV

IC50 [µM] | Compound
24 | Cn1nnc(-c2oncc2CC(=O)N(C2CC3(CC3)C2)[C@@H](C(=O)NC23CC(C)(C2)C3)c2cc(F)ccc2F)n1
20 | Cn1nnc(-c2c(CC(=O)N(C3CC4(CC4)C3)[C@@H](C(=O)NC34CC(C)(C3)C4)c3ccccc3Cl)cnn2C)n1
